Reference: US20120003339A1, “COMPOSITIONS AND METHODS FOR CONTROLLING BLOOD GLUCOSE LEVELS” (priority 2010, published 2012)

Experiments:
Assay type in all cases: in vivo, human
[1] = Example I: blood glucose levels and side effects in a subject with type 2 diabetes; conditions: person, blood glucose 17 to 19 mmol/L at diagnosis, first prescribed drug
[2] = Example II: morning (fasting) and two-hour after eating blood glucose readings, A1c and side effects in a subject with type 2 diabetes; conditions: 500 mg once a day
Method: A subject had been diagnosed with type 2 diabetes. Their fasting glucose reading was 11.6 mmol/L and A1c was 8.9%. Due to arthritis in their knee, exercise was not an option. […] They were prescribed 500 mg of Ratio-Metformin once a day. […] According to the endocrinologist, the subject's morning readings (fasting blood glucose levels) were in the range from 8.1 to 10.8 mmol/L, and their two-hour after eating readings were 10 to 13.8 mmol/L.
Due to the adverse side effects of Metformin, the subject decided to stop taking the prescribed daily Metformin and replace it with the composition and method of the present invention. […]
The first cycle was about three months in length. […] Within a week that the subject was treated with the method of the invention, their morning readings were in the 4 to 6.5 mmol/L range and their two hours after eating range were well below 9 mmol/L. It should be noted that, for three weeks during this period, the patient was on vacation in France, enjoying fine French food and wine. A month after finishing the first cycle, the subject took a second fasting sugar test and a A1c test, the readings were 6.6 mmol/L and 6%, respectively.
The subject was treated with three cycles of the composition and method of the present invention. […] Their morning readings were in the range of 4.3 to 6.5 mmol/L, and their two hour after eating readings were in the range of 6 to 8.5 mmol/L. […]

[3] = Example III: blood glucose levels in a morbidly obese subject with type 2 diabetes; conditions: person, 380 lb, on traditional medication
Method: A subject weighed 380 lb was diagnosed with type 2 diabetes and was considered morbidly obese. The subject was prescribed Metformin. With traditional medication their blood glucose levels were at about 19 mmol/L, well above the normal range. Although the subject was considered for gastric bypass surgery, their medical doctors would not operate because their blood glucose could not be controlled.
The subject started taking 25 mg each of Gudmar, Kalijiri, Kariyatu, and Neempan tablets three times a day. Two weeks after the subject started the taking the herbal composition of the invention, the subject's blood glucose levels had dropped to 5.5 mmol/L, within the normal range. As a result, the subject was able to proceed with the surgery.

CN(CCOc1ccc(CC2SC(=O)NC2=O)cc1)c1ccccn1 (stereo not shown) [Avandia, rosiglitazone]
blood glucose levels (effect in words) [1]: did not reduce their blood glucose levels to the normal range

CN(C)C(=N)N=C(N)N [Metformin]
side effect (in words) [2]: left them feeling confused, “in a fog.” | blood glucose levels (effect in words) ([2]; fasting glucose 11.6 mmol/L and A1c 8.9% at diagnosis): did reduce their blood glucose levels | blood glucose levels [3]: about 19 mmol/L
